Assay results: article PMC5630020 (Genes & Development, 2017)

Columns and labels:
E. coli SspA homodimer = E. coli SspA homodimer (Escherichia coli, UniProt P0ACA3); format: binding
SEC = target: the molecule itself; experiment: SEC

## Nc1nc2c(ncn2[C@@H]2O[C@H](COP(=O)(O)OP(=O)(O)O)[C@@H](OP(=O)(O)OP(=O)(O)O)[C@H]2O)c(=O)[nH]1 [ppGpp]
E. coli SspA homodimer
  DRaCALA: only very weak binding requiring ppGpp concentrations in the high micromolar range

B1: E. coli SspA, wild type (natural protein, UniProt P0ACA3 1-212, looked up)
chain: MAVAANKRSVMTLFSGPTDIYSHQVRIVLAEKGVSFEIEHVEKDNPPQDLIDLNPNQSVPTLVDRELTLWESRIIMEYLDERFPHPPLMPVYPVARGESRLYMHRIEKDWYTLMNTIINGSASEADAARKQLREELLAIAPVFGQKPYFLSDEFSLVDCYLAPLLWRLPQLGIEFSGPGAKELKGYMTRVFERDSFLASLTEAEREMRLGRS
notes: also called wild-type SspA; E. coli SspA homodimer
SEC
  stoichiometry N: 2
